Source: patent US11787762B2, “Tetralin and tetrahydroquinoline compounds as inhibitors of HIF-2alpha” (ARCUS BIOSCIENCES, INC., priority 2020, dated 2023)

Molecular target: T1, HIF-2α (Homo sapiens, UniProt Q99814)
T1 construct: host or cells: 786-O cells stably transduced with Cignal Lenti HIF Luc Reporter (only the reporter was introduced, not HIF-2α)
Test: HIF-2α luciferase reporter assay in HIF-Luc-786-O cells
Type: cell-based
Conditions: Table 3, 20 hours incubation
Protocol: Generation of HIF-2α Luciferase 786-O Cell Line:
Stable cell lines were generated by transducing 786-O cells (ATCC, CRL-1932) with Cignal Lenti HIF Luc Reporter lentivirus (CLS-007 L, Qiagen) according to the manufacturer's guidelines. In brief, 0.3×10^6 786-0 cells were transduced with lentivirus at a Multiplicity of Infection (MOI) of 25 for 24 hours. After transduction, cells were replenished with fresh RPMI 1640 Medium (Cat. No. 11875085, Thermo Fisher,) supplemented with 10% FBS (Cat. No. A3160502, Gibco), 2 mM GlutaMax (Cat. No. 35050-061, Invitrogen) and 100 units of penicillin and 100 μg of streptomycin/mL (Cat. No 15070063, Thermo Fisher) for another 24 hours. Antibiotic selection was performed in cell media containing 4 μg/mL of Puromycin. After 7 days of antibiotic selection, stable pools of surviving cells were expanded and used in a luciferase reporter assay.
HIF-2α Luciferase Reporter Assay:
On day one, 20 uL of HIF-Luc-786-0 cells in OptiMem (Cat. No. 31985088, Thermo Fisher) were seeded into each well of a 384 well white opaque plate (Corning 3570) and incubated at 37° C. and 5% CO2. Twenty microliters of 2× test compounds in OptiMem were added to cells after 4 hours of incubation. Final assay conditions comprised 20,000 cells per well in 1% DMSO with test compound concentrations ranging from 50 uM to 0 uM. After 20 hours incubation at 37° C. and 5% CO2, luciferase activity was determined using ONE-Glo Luciferase Assay Reagent (E6110, Promega) following the manufacture's recommended procedure. Briefly, 40 uL of ONE-Glo luciferase reagents were added to each well and luciferase signals were measured using an Envision 2102 Multilabel Reader. Percentage maximum activity in each test well was calculated based on DMSO (maximum activity) and no cell control wells (baseline activity). The IC50 values of the test compounds were determined from compound dose response curves fitted using a standard four parameter fit equation.

T1 sequence (Q99814 whole entry): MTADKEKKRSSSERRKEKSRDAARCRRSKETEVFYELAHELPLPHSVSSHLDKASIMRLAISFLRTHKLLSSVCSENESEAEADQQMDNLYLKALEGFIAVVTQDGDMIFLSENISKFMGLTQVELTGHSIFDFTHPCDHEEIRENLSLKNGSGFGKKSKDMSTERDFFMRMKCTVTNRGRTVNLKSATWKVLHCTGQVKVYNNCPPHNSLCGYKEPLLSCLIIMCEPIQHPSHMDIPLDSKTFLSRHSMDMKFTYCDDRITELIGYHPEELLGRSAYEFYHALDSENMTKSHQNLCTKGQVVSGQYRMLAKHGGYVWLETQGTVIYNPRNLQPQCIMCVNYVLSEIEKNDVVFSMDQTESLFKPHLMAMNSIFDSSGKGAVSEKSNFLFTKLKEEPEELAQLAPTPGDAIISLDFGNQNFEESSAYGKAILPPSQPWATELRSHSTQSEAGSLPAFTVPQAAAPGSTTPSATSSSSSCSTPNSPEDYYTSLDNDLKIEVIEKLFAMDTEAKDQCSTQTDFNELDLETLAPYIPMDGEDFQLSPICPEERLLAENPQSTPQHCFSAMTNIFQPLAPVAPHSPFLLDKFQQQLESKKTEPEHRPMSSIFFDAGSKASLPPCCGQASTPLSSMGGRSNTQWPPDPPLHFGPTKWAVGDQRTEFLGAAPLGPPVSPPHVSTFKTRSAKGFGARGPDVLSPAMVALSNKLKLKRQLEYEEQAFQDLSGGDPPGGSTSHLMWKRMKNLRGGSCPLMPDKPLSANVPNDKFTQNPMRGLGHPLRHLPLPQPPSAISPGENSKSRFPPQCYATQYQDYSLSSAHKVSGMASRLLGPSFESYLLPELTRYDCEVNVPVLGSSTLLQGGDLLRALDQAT

| IC50 [nM] | Structure (SMILES) |
| --- | --- |
| < 100 | Cc1ncc(-c2ccc([C@H]3CC[C@H](F)c4cc(F)cc(C#N)c43)c3c2[C@H](O)C(F)(F)C3)n1C [Example 236, (5S,8R)-8-[(1S)-7-(2,3-dimethylimidazol-4-yl)-2,2-difluoro-1-hydroxy-1,3-dihydroinden-4-yl]-3,5-difluoro-5,6,7,8-tetrahydronaphthalene-1-carbonitrile] |
| 100 to 1000 | Cn1ccnc1-c1ccc([C@H]2CC[C@H](F)c3cc(F)cc(C#N)c32)c2c1[C@H](O)C(F)(F)C2 [Example 238, (5S,8R)-8-[(1S)-2,2-difluoro-1-hydroxy-7-(1-methylimidazol-2-yl)-1,3-dihydroinden-4-yl]-3,5-difluoro-5,6,7,8-tetrahydronaphthalene-1-carbonitrile] |
| < 100 | N#Cc1cc(F)cc2c1[C@@H](c1ccc(-c3cnc4cnccn34)c3c1CC(F)(F)[C@H]3O)CC[C@@H]2F [Example 234, (5S,8R)-8-[(1S)-2,2-difluoro-1-hydroxy-7-imidazo[1,2-a]pyrazin-3-yl-1,3-dihydroinden-4-yl]-3,5-difluoro-5,6,7,8-tetrahydronaphthalene-1-carbonitrile] |
| 100 to 1000 | N#Cc1cc(F)cc2c1[C@@H](c1ccc(C(=O)O)c3c1CC(F)(F)[C@H]3O)CC[C@@H]2F [Example 223, (3S)-7-[(1R,4S)-8-cyano-4,6-difluoro-1,2,3,4-tetrahydronaphthalen-1-yl]-2,2-difluoro-3-hydroxy-1,3-dihydroindene-4-carboxylic acid] |
| < 100 | N#Cc1cc(F)cc2c1[C@@H](c1ccc(-c3cc(F)ccc3N)c3c1CC(F)(F)[C@H]3O)CC[C@@H]2F [Example 235, (5S,8R)-8-[(1S)-7-(2-amino-5-fluorophenyl)-2,2-difluoro-1-hydroxy-1,3-dihydroinden-4-yl]-3,5-difluoro-5,6,7,8-tetrahydronaphthalene-1-carbonitrile] |
| < 100 | Cc1ccc([C@H]2CC[C@H](F)c3cc(F)cc(C#N)c32)c2c1[C@H](O)C(F)(F)C2 [Example 225, (5S,8R)-8-[(1S)-2,2-difluoro-1-hydroxy-7-methyl-1,3-dihydroinden-4-yl]-3,5-difluoro-5,6,7,8-tetrahydronaphthalene-1-carbonitrile] |

The next lines start with the compound.

| Structure (SMILES) | IC50 [nM] |
| --- | --- |
| Cc1ccc(-c2ccc([C@H]3CC[C@H](F)c4cc(F)cc(C#N)c43)c3c2[C@H](O)C(F)(F)C3)c(N)n1 [Example 185, (5S,8R)-8-[(1S)-7-(2-amino-6-methylpyridin-3-yl)-2,2-difluoro-1-hydroxy-1,3-dihydroinden-4-yl]-3,5-difluoro-5,6,7,8-tetrahydronaphthalene-1-carbonitrile] | < 100 |
| N#Cc1cc(F)cc2c1[C@@H](c1ccc(-c3nccnc3N)c3c1CC(F)(F)[C@H]3O)CC[C@@H]2F [Example 186, (5S,8R)-8-[(1S)-7-(3-aminopyrazin-2-yl)-2,2-difluoro-1-hydroxy-1,3-dihydroinden-4-yl]-3,5-difluoro-5,6,7,8-tetrahydronaphthalene-1-carbonitrile] | < 100 |
| N#Cc1ccc(-c2ccc([C@H]3CC[C@H](F)c4cc(F)cc(C#N)c43)c3c2[C@H](O)C(F)(F)C3)c(N)c1 [Example 197, (5S,8R)-8-[(1S)-7-(2-amino-4-cyanophenyl)-2,2-difluoro-1-hydroxy-1,3-dihydroinden-4-yl]-3,5-difluoro-5,6,7,8-tetrahydronaphthalene-1-carbonitrile] | < 100 |
| Cn1c(-c2ccc([C@H]3CC[C@H](F)c4cc(F)cc(C#N)c43)c3c2[C@H](O)C(F)(F)C3)cccc1=O [Example 171, (5S,8R)-8-[(1S)-2,2-difluoro-1-hydroxy-7-(1-methyl-6-oxopyridin-2-yl)-1,3-dihydroinden-4-yl]-3,5-difluoro-5,6,7,8-tetrahydronaphthalene-1-carbonitrile] | < 100 |
| Cn1cncc1-c1c(F)cc([C@H]2C[C@H](F)[C@H](F)c3cc(F)cc(C#N)c32)c2c1[C@H](O)C(F)(F)C2 [Example 208, (5R,6S)-3,5,6-trifluoro-8-[(1S)-2,2,6-trifluoro-1-hydroxy-7-(1-methyl-1H-imidazol-5-yl)-2,3-dihydro-1H-inden-4-yl]-5,6,7,8-tetrahydronaphthalene-1-carbonitrile] | < 100 |
| Cn1cc(-c2ccc([C@H]3CC[C@H](F)c4cc(F)cc(C#N)c43)c3c2[C@H](O)C(F)(F)C3)cn1 [Example 150, (5S,8R)-8-[(1S)-2,2-difluoro-1-hydroxy-7-(1-methylpyrazol-4-yl)-1,3-dihydroinden-4-yl]-3,5-difluoro-5,6,7,8-tetrahydronaphthalene-1-carbonitrile] | 100 to 1000 |
| Cn1nccc1-c1c(F)cc([C@H]2CC[C@H](F)c3cc(F)cc(C#N)c32)c2c1[C@H](O)[C@H](F)C2 [Example 210, (5S,8R)-8-[(1S,2R)-2,6-difluoro-1-hydroxy-7-(2-methylpyrazol-3-yl)-2,3-dihydro-1H-inden-4-yl]-3,5-difluoro-5,6,7,8-tetrahydronaphthalene-1-carbonitrile] | < 100 |
| N#Cc1cc(F)cc2c1[C@@H](c1ccc(-c3ccccc3CN)c3c1CC(F)(F)[C@H]3O)CC[C@@H]2F [Example 165, (5S,8R)-8-[(1S)-7-[2-(aminomethyl)phenyl]-2,2-difluoro-1-hydroxy-2,3-dihydro-1H-inden-4-yl]-3,5-difluoro-5,6,7,8-tetrahydronaphthalene-1-carbonitrile] | 100 to 1000 |
| N#Cc1cc(F)cc2c1[C@@H](c1ccc(C#N)c3c1CC(F)(F)[C@H]3O)CC[C@@H]2F [Example 201, (5S,8R)-8-[(1S)-7-cyano-2,2-difluoro-1-hydroxy-1,3-dihydroinden-4-yl]-3,5-difluoro-5,6,7,8-tetrahydronaphthalene-1-carbonitrile] | < 100 |
| Cc1nc(N)ncc1-c1ccc([C@H]2CC[C@H](F)c3cc(F)cc(C#N)c32)c2c1[C@H](O)C(F)(F)C2 [Example 168, (5S,8R)-8-[(1S)-7-(2-amino-4-methylpyrimidin-5-yl)-2,2-difluoro-1-hydroxy-1,3-dihydroinden-4-yl]-3,5-difluoro-5,6,7,8-tetrahydronaphthalene-1-carbonitrile] | < 100 |
| N#Cc1ccc(-c2c(F)cc([C@H]3CC[C@H](F)c4cc(F)cc(C#N)c43)c3c2[C@H](O)C(F)(F)C3)c(N)c1 [Example 204, (5S,8R)-8-[(1S)-7-(2-amino-4-cyanophenyl)-2,2,6-trifluoro-1-hydroxy-2,3-dihydro-1H-inden-4-yl]-3,5-difluoro-5,6,7,8-tetrahydronaphthalene-1-carbonitrile] | < 100 |
| Cc1nc(N)ccc1-c1c(F)cc([C@H]2CC[C@H](F)c3cc(F)cc(C#N)c32)c2c1[C@H](O)C(F)(F)C2 [Example 203, (5S,8R)-8-[(1S)-7-(6-amino-2-methylpyridin-3-yl)-2,2,6-trifluoro-1-hydroxy-1,3-dihydroinden-4-yl]-3,5-difluoro-5,6,7,8-tetrahydronaphthalene-1-carbonitrile] | < 100 |
| N#Cc1cc(F)cc2c1[C@@H](c1ccc(-c3cccc4cn[nH]c34)c3c1CC(F)(F)[C@H]3O)CC[C@@H]2F [Example 187, (5S,8R)-8-[(1S)-2,2-difluoro-1-hydroxy-7-(1H-indazol-7-yl)-1,3-dihydroinden-4-yl]-3,5-difluoro-5,6,7,8-tetrahydronaphthalene-1-carbonitrile] | < 100 |
